This note sets out measurements from patent US8431593B2, “Heteroaryl amide derivatives” (H. Lundbeck A/S, priority 2006, dated 2013).

The structures appear in SMILES notation.

The assay deals with T1, P2X7 receptor (Homo sapiens, UniProt Q99572).
T1 construct: host or cells: SH-SY5Y
T1 sequence (Q99572 1-595): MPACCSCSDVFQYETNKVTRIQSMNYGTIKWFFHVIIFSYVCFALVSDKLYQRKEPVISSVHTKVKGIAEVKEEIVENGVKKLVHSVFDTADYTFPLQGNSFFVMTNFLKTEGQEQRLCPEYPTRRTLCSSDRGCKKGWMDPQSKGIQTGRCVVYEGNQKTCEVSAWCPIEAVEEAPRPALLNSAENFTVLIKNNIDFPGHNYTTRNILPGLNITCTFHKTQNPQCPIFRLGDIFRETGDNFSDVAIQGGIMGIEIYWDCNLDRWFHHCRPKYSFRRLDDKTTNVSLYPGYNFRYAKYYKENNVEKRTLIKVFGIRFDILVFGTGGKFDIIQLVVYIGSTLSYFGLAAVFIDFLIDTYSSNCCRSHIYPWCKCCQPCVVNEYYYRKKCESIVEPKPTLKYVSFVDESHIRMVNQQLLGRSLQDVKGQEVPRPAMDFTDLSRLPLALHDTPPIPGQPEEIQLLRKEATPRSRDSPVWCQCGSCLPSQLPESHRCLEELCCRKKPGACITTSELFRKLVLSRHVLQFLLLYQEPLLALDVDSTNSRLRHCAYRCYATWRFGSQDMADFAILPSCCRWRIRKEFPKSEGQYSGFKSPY
As to the kind of experiment: P2X7 calcium mobilization assay, high throughput, antagonist activity (Example 4A). In kind it is cell-based. The conditions noted are these: fluorescence response of cells exposed to 80 μM 2′(3′)-O-(4-benzoyl-benzoyl)adenosine 5′-triphosphate; Example 4A; read-out: IC50. In short, it runs like this: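 Dye-loaded cells (100,000/well, seeded previous day) are pre-exposed to compound for an hour at room temperature. Fluorescence maxima are baseline-corrected against no-agonist wells and compared with the averaged agonist-well maximum.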

Regarding `Cc1cc(-c2cn3c(C(=O)NCC45CC6CC(CC(C6)C4)C5)cccc3n2)n(CC(=O)O)n1` [Compound 347, (5-{5-[(adamantan-1-ylmethyl)carbamoyl]imidazo[1,2-a]pyridin-2-yl}-3-methyl-1H-pyrazol-1-yl)acetic acid], the half-inhibitory concentration (IC50) is under 2 µM. For the compound `CN(CC(=O)O)Cc1cn2c(C(=O)NCC34CC5CC(CC(C5)C3)C4)cccc2n1` [Compound 348, N-({5-[(adamantan-1-ylmethyl)carbamoyl]imidazo[1,2-a]pyridin-2-yl}methyl)-N-methylglycine], the IC50 was under 2 µM.

Turning to `O=C(O)c1ccc(=O)n(Cc2cn3c(C(=O)NCC45CC6CC(CC(C6)C4)C5)cccc3n2)c1` [Compound 350, 1-({5-[(adamantan-1-ylmethyl)carbamoyl]imidazo[1,2-a]pyridin-2-yl}methyl)-6-oxo-1,6-dihydropyridine-3-carboxylic acid], the IC50 was under 2 µM.

As to `O=C(O)c1cccn(Cc2cn3c(C(=O)NCC45CC6CC(CC(C6)C4)C5)cccc3n2)c1=O` [Compound 351, 1-({5-[(adamantan-1-ylmethyl)carbamoyl]imidazo[1,2-a]pyridin-2-yl}methyl)-2-oxo-1,2-dihydropyridine-3-carboxylic acid], the IC50 was under 2 µM.

For `O=C(NCC12CC3CC(CC(C3)C1)C2)c1cccc2nc(CN3CCSCC3)cn12` [Compound 352, N-(adamantan-1-ylmethyl)-2-(thiomorpholin-4-ylmethyl)imidazo[1,2-a]pyridine-5-carboxamide], the IC50 is under 2 µM. `CC(=O)CCc1cn2c(C(=O)NCC34CC5CC(CC(C5)C3)C4)cccc2n1` [Compound 353, N-(adamantan-1-ylmethyl)-2-(3-oxobutyl)imidazo[l ,2-a]pyridine-5-carboxamide]: the IC50 is under 2 µM. For the compound `C/C(CCc1cn2c(C(=O)NCC34CC5CC(CC(C5)C3)C4)cccc2n1)=N\O` [Compound 354, N-(adamantan-1-ylmethyl)-2-[(3E)-3-(hydroxyimino)butyl] imidazo[1,2-a]pyridine-5-carboxamide], the IC50 is under 2 µM.

With `O=C(O)c1ccn(Cc2cn3c(C(=O)NCC45CC6CC(CC(C6)C4)C5)cccc3n2)c(=O)c1` [Compound 355, 1-({5-[(adamantan-1-ylmethyl)carbamoyl]imidazo[1,2-a]pyridin-2-yl}methyl)-2-oxo-1,2-dihydropyridine-4-carboxylic acid], the IC50 was under 2 µM. Consider `CCOC(=O)N1CCN(C(=O)c2cn3c(NC(=O)CC45CC6CC(CC(C6)C4)C5)cccc3n2)CC1` [Compound 356, ethyl 4-({5-[(adamantan-1-ylacetyl)amino]imidazo [1,2-a]pyridin-2-yl}carbonyl) piperazine-1-carboxylate], for which the IC50 was under 2 µM.

In the case of `O=C(CC12CC3CC(CC(C3)C1)C2)Nc1cccc2nc(C(=O)N3CCCCC3)cn12` [Compound 357, 2-adamantan-1-yl-N-[2-(piperidin-1-ylcarbonyl)imidazo [1,2-a]pyridin-5-yl]acetamide], the IC50 was under 2 µM. `O=C(CC12CC3CC(CC(C3)C1)C2)Nc1cccc2nc(C(=O)N3CCCC3)cn12` [Compound 358, 2-adamantan-1-yl-N-[2-(pyrrolidin-1-ylcarbonyl)imidazo [1,2-a]pyridin-5-yl]acetamide]: the IC50 was under 2 µM.

On to `CCCCN(C)C(=O)c1cn2c(NC(=O)CC34CC5CC(CC(C5)C3)C4)cccc2n1` [Compound 360, 5-[(adamantan-1-ylacetyl)amino]-N-butyl-N-methylimidazo[1,2-a]pyridine-2-carboxamide], for which the IC50 was under 2 µM.

Take `CCCN(C)C(=O)c1cn2c(NC(=O)CC34CC5CC(CC(C5)C3)C4)cccc2n1` [Compound 361, 5-[(adamantan-1-ylacetyl)amino]-N-methyl-N-propylimidazo[1,2-a]pyridine-2-carboxamide]: the IC50 was under 2 µM. Consider `O=C(CC12CC3CC(CC(C3)C1)C2)Nc1cccc2nc(C(=O)N3CCSCC3)cn12` [Compound 362, 2-adamantan-1-yl-N-[2-(thiomorpholin-4-ylcarbonyl)imidazo[1,2-a]pyridin-5-yl]acetamide], for which the IC50 is under 2 µM. For the compound `CC1CCN(C(=O)c2cn3c(NC(=O)CC45CC6CC(CC(C6)C4)C5)cccc3n2)CC1` [Compound 363, 2-adamantan-1-yl-N-{2-[(4-methylpiperidin-1-yl)carbonyl]imidazo[1,2-a]pyridin-5-yl}acetamide], the IC50 is under 2 µM. For the compound `O=C(CC12CC3CC(CC(C3)C1)C2)Nc1cccc2nc(C(=O)N3CCOCC3)cn12` [Compound 364, 2-adamantan-1-yl-N-[2-(morpholin-4-ylcarbonyl)imidazo[1,2-a]pyridin-5-yl]acetamide], the IC50 was under 2 µM. Take `CCN(CC)C(=O)c1cn2c(NC(=O)CC34CC5CC(CC(C5)C3)C4)cccc2n1` [Compound 365, 5-[(adamantan-1-ylacetyl)amino]-N,N-diethylimidazo[1,2-a]pyridine-2-carboxamide]: the IC50 is under 2 µM. Then `COCCN(C)C(=O)c1cn2c(NC(=O)CC34CC5CC(CC(C5)C3)C4)cccc2n1` [Compound 366, 5-[(adamantan-1-ylacetyl)amino]-N-(2-methoxyethyl)-N-methylimidazo[1,2-a]pyridine-2-carboxamide], with under 2 µM; and `CC(C)CN(C)C(=O)c1cn2c(NC(=O)CC34CC5CC(CC(C5)C3)C4)cccc2n1` [Compound 367, 5-[(adamantan-1-ylacetyl)amino]-N-isobutyl-N-methylimidazo[1,2-a]pyridine-2-carboxamide], with under 2 µM. Regarding `CN(CC1OCCO1)C(=O)c1cn2c(NC(=O)CC34CC5CC(CC(C5)C3)C4)cccc2n1` [Compound 368, 5-[(adamantan-l-ylacetyl)amino]-N-(1,3-dioxolan-2-ylmethyl)-N-methylimidazo[1,2-a]pyridine-2-carboxamide], the IC50 was under 2 µM. Next, `CCN(C)C(=O)c1cn2c(NC(=O)CC34CC5CC(CC(C5)C3)C4)cccc2n1` [Compound 369, 5-[(adamantan-1-ylacetyl)amino]-N-ethyl-N-methylimidazo[1,2-a]pyridine-2-carboxamide]: under 2 µM. For the compound `CN(C)C(=O)c1cn2c(NC(=O)CC34CC5CC(CC(C5)C3)C4)cccc2n1` [Compound 370, 5-[(adamantan-1-ylacetyl)amino]-N,N-dimethylimidazo[1,2-a]pyridine-2-carboxamide], the IC50 is under 2 µM. As to `COC[C@@H]1CCCN1C(=O)c1cn2c(NC(=O)CC34CC5CC(CC(C5)C3)C4)cccc2n1` [Compound 371, 2-adamantan-1-yl-N-(2-{[(2S)-2-(methoxymethyl)pyrrolidin-1-yl]carbonyl}imidazo [1,2-a]pyridin-5-yl)acetamide], the IC50 was under 2 µM. Then `CCCCN(CC)C(=O)c1cn2c(NC(=O)CC34CC5CC(CC(C5)C3)C4)cccc2n1` [Compound 373, 5-[(adamantan-1-ylacetyl)amino]-N-butyl-N-ethylimidazo[1,2-a]pyridine-2-carboxamide], with under 2 µM; and `CCCN(CCC)C(=O)c1cn2c(NC(=O)CC34CC5CC(CC(C5)C3)C4)cccc2n1` [Compound 374, 5-[(adamantan-1-ylacetyl)amino]-N,N-dipropylimidazo[1,2-a]pyridine-2-carboxamide], with under 2 µM; and `CCOC(=O)CN(CC)C(=O)c1cn2c(NC(=O)CC34CC5CC(CC(C5)C3)C4)cccc2n1` [Compound 375, ethyl N-({5-[(adamantan-1-ylacetyl)amino]imidazo [1,2-a]pyridin-2-yl}carbonyl)-N-ethylglycinate], with under 2 µM. Consider `COC(=O)C1CCCN1C(=O)c1cn2c(NC(=O)CC34CC5CC(CC(C5)C3)C4)cccc2n1` (stereo not shown) [Compound 376, methyl 1-({5-[(adamantan-1-ylacetyl)amino]imidazo [1,2-a]pyridin-2-yl}carbonyl)prolinate], for which the IC50 was under 2 µM. For `COC(=O)CN(C)C(=O)c1cn2c(NC(=O)CC34CC5CC(CC(C5)C3)C4)cccc2n1` [Compound 377, methyl N-({5-[(adamantan-1-ylacetyl)amino]imidazo[1,2-a]pyridin-2-yl}carbonyl)-N-methylglycinate], the IC50 is under 2 µM. As to `COCCN(C(=O)c1cn2c(NC(=O)CC34CC5CC(CC(C5)C3)C4)cccc2n1)C(C)C` [Compound 379, 5-[(adamantan-1-ylacetyl)amino]-N-isopropyl-N-(2-methoxyethyl)imidazo [1,2-a]pyridine-2-carboxamide], the IC50 is under 2 µM. Regarding `O=C1CCN(C(=O)c2cn3c(NC(=O)CC45CC6CC(CC(C6)C4)C5)cccc3n2)CCN1` [Compound 380, 2-adamantan-1-yl-N-{2-[(5-oxo-1,4-diazepan-1-yl)carbonl]imidazo [1,2-a]pyridin-5-yl}acetamide], the IC50 was under 2 µM. Turning to `O=C(CC12CC3CC(CC(C3)C1)C2)Nc1cccc2nc(C(=O)N3CCC(C(F)(F)F)CC3)cn12` [Compound 382, 2-adamantan-1-yl-N-(2-{[4-(trifluoromethyl)piperidin-1-yl]carbonyl}imidazo[1,2-a]pyridin-5-yl)acetamide], the IC50 was under 2 µM.
